The results in this text go back to PubChem BioAssay (NCI).

SMILES strings stand for the structures. “And” between values parts separate entries of the source, which are not always exact repeats. Equal values may be shown once.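 Cells were grown in 96-well plates and exposed to each compound for 48 hours at five concentrations; endpoints were interpolated linearly between bracketing concentrations, or set to the highest concentration if not reached. GI50: concentration for 50% inhibition of growth. TGI: total growth inhibition.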

As usually defined, the TGI is the concentration giving total growth inhibition. Read a low TGI as greater sensitivity of the cells. As a reminder, the GI50 is the concentration that inhibits growth by half.

Among the test systems are OVCAR-3 ovarian; SN12C renal; UACC-62 melanoma; OVCAR-5 ovarian; M14 melanoma; HCC-2998 colon; UACC-257 melanoma; T-47D breast; SK-MEL-28 melanoma; SF-295 CNS.
What all share (test): DTP human tumour cell line panel, 48 h

As for `O=C(N/N=C/c1ccc(Br)cc1)N/N=C/c1ccc(Br)cc1`, the TGI turned out to be 14.9 µM with OVCAR-3 ovarian; 17.4 µM with SN12C renal; 41.2 µM in the assay on UACC-62 melanoma; 95.8 µM with OVCAR-5 ovarian; 32.4 µM with M14 melanoma; 91.4 µM with HCC-2998 colon. Also, the TGI was 40.2 µM in the assay on UACC-257 melanoma, over 100 µM in the assay on T-47D breast, 26.9 µM in the assay on SK-MEL-28 melanoma and 19.6 µM with SF-295 CNS.
On to `O=c1[nH]c(Nc2cccc(CO)c2)nc2nc[nH]c12`, for which the TGI in the assay on OVCAR-3 ovarian, with SN12C renal, in the assay with UACC-62 melanoma, in the assay with OVCAR-5 ovarian, in the assay on M14 melanoma and in the assay with HCC-2998 colon was over 100 µM each time. The TGI in the assay with UACC-257 melanoma, in the assay with T-47D breast, in the assay on SK-MEL-28 melanoma and in the assay on SF-295 CNS was over 100 µM in each case.
On to `Cn1c2ccccc2c(=O)c2c(O)cc3c(c21)C=CC1(CCCCC1)O3`, for which the TGI in the assay with OVCAR-3 ovarian, in the assay on SN12C renal, in the assay on UACC-62 melanoma, with OVCAR-5 ovarian, in the assay with M14 melanoma and with HCC-2998 colon was over 10 µM throughout. Besides, the TGI with UACC-257 melanoma, in the assay with T-47D breast, in the assay with SK-MEL-28 melanoma and in the assay on SF-295 CNS was over 10 µM each time.
Regarding `COc1ccc(C2c3cc4c(cc3OC(N3CCOCC3)C2C)OCO4)c(OC)c1OC` (stereo not given), the TGI was 45.6 µM in the assay on OVCAR-3 ovarian; over 100 µM with SN12C renal; 69.7 µM with UACC-62 melanoma; 74.3 µM in the assay on OVCAR-5 ovarian; 33.5 µM with M14 melanoma; 25 µM in the assay with HCC-2998 colon. Also, the TGI with UACC-257 melanoma was 82.2 µM; with T-47D breast it was over 100 µM; in the assay on SK-MEL-28 melanoma, 82 µM; with SF-295 CNS it was 43 µM.
For the compound `C=C(CN(C)C)C(=O)c1ccccc1[N+](=O)[O-]`, the GI50 in the assay with OVCAR-3 ovarian was 14.7 µM; in the assay on SN12C renal, 3.74 µM; with UACC-62 melanoma, 13.1 µM; with OVCAR-5 ovarian, 16.3 µM; in the assay with M14 melanoma it was 6.42 µM; in the assay with HCC-2998 colon, 15.3 µM. Moreover, the GI50 was 14.9 µM with UACC-257 melanoma, 5.68 µM with T-47D breast, 18.8 µM with SK-MEL-28 melanoma and 17.7 µM with SF-295 CNS. The TGI in the assay with OVCAR-3 ovarian is 37 µM and 40.7 µM; in the assay on SN12C renal it was 32.6 µM and 24.7 µM; with UACC-62 melanoma, 32.9 µM and 31.1 µM; in the assay with OVCAR-5 ovarian it was 29.4 µM and 31.1 µM; with M14 melanoma, 29.6 µM; with HCC-2998 colon, > 56.5 µM and 29.2 µM. Moreover, the total growth inhibition concentration (TGI) is 29.7 µM and 32.8 µM in the assay on UACC-257 melanoma; 18.6 µM and 28.6 µM in the assay on T-47D breast; 34.1 µM and 51.6 µM in the assay with SK-MEL-28 melanoma; 50.7 µM and 32.9 µM in the assay with SF-295 CNS.
Take `Cc1ccc(/C=C2\Cc3c(C)cc(C)cc3C2=O)c(C(=O)O)c1`: the TGI with OVCAR-3 ovarian is 94 µM; in the assay on SN12C renal it was over 100 µM; in the assay on UACC-62 melanoma it was over 100 µM; with OVCAR-5 ovarian, over 100 µM; with M14 melanoma, over 100 µM; with HCC-2998 colon it was 98.6 µM. Moreover, the total growth inhibition concentration (TGI) in the assay with UACC-257 melanoma, in the assay with T-47D breast, in the assay with SK-MEL-28 melanoma and in the assay with SF-295 CNS was over 100 µM each time.
For the compound `COc1ccc(COCC[C@H](C)OC2OC(CO[Si](C)(C)C(C)(C)C)C(OC(=O)CCCN=[N+]=[N-])C(OC(=O)CCCN=[N+]=[N-])C2OC(=O)CCCN=[N+]=[N-])cc1` (stereo not given in full), the TGI in the assay with OVCAR-3 ovarian, with SN12C renal, in the assay with UACC-62 melanoma, with OVCAR-5 ovarian, with M14 melanoma and in the assay on HCC-2998 colon was over 100 µM throughout. For the same compound, the TGI with UACC-257 melanoma, with T-47D breast, with SK-MEL-28 melanoma and with SF-295 CNS was over 100 µM in each case.
`C#CCN(Cc1ccc2nc(OC)c(OC)nc2c1)c1cc(OC)c(OC)c(OC)c1`: the TGI with OVCAR-3 ovarian was over 100 µM; in the assay with SN12C renal, 57.2 µM; in the assay with UACC-62 melanoma, over 97.2 µM; with OVCAR-5 ovarian, over 85.8 µM; in the assay with M14 melanoma it was 71.2 µM; in the assay on HCC-2998 colon it was over 100 µM. For the same compound, the TGI in the assay with UACC-257 melanoma, in the assay on T-47D breast, in the assay with SK-MEL-28 melanoma and with SF-295 CNS was over 100 µM throughout.
In the case of `COC(=O)C1=Nc2c(C)nn(-c3ccccc3)c2N=C(c2ccccc2)C1`, the TGI in the assay on OVCAR-3 ovarian, in the assay with SN12C renal, in the assay with UACC-62 melanoma, with OVCAR-5 ovarian, in the assay on M14 melanoma and with HCC-2998 colon was over 10 µM in each case. The TGI in the assay with UACC-257 melanoma, in the assay with T-47D breast, in the assay on SK-MEL-28 melanoma and in the assay with SF-295 CNS was over 10 µM in each case.
For `COc1cc2c(cc1Cc1c(F)cccc1Cl)nc(-c1c(F)cccc1Cl)n2Cc1c(F)cccc1Cl`, the TGI is over 100 µM in the assay with OVCAR-3 ovarian; over 100 µM in the assay with SN12C renal; over 100 µM with UACC-62 melanoma; over 100 µM in the assay on OVCAR-5 ovarian; over 100 µM with M14 melanoma; 76.7 µM in the assay on HCC-2998 colon. The TGI was over 100 µM with UACC-257 melanoma, 59.5 µM with T-47D breast, over 100 µM in the assay on SK-MEL-28 melanoma and 41.3 µM in the assay with SF-295 CNS.
`O=C(Nc1noc(-c2ccccc2)n1)c1ccccc1CNc1noc(-c2ccccc2)n1`: the TGI in the assay with OVCAR-3 ovarian, in the assay on SN12C renal, in the assay on UACC-62 melanoma, in the assay on OVCAR-5 ovarian, in the assay on M14 melanoma and in the assay on HCC-2998 colon was over 100 µM in each case. In addition, the TGI with UACC-257 melanoma, with T-47D breast, in the assay with SK-MEL-28 melanoma and with SF-295 CNS was over 100 µM each time.
As for `CC(=O)c1cnc2oc3ccc(O)cc3c2c1-c1ccccc1`, the total growth inhibition concentration (TGI) was 82.6 µM with OVCAR-3 ovarian; over 100 µM in the assay with SN12C renal; 70.4 µM in the assay with UACC-62 melanoma; over 100 µM in the assay on OVCAR-5 ovarian; over 100 µM with M14 melanoma; over 100 µM in the assay on HCC-2998 colon. Also, the TGI in the assay on UACC-257 melanoma is over 100 µM; in the assay with T-47D breast it was 80.4 µM; in the assay with SK-MEL-28 melanoma it was over 100 µM; in the assay on SF-295 CNS, over 100 µM.
